Laboratory results as given in ChEMBL document CHEMBL5042496, “An unanticipated discovery towards novel naphthalimide corbelled aminothiazoximes as potential anti-MRSA agents and allosteric modulators for PBP2a” (Eur J Med Chem, 2022).
≈ marks a conversion by molar mass, not a printed value.

Tests used:
Staphylococcus aureus [1] = experiment: Antibacterial activity against methicillin-resistant Staphylococcus aureus assessed as bacterial growth inhibition measured after 24 hrs by two fold serial dilution technique; type: functional
Enterococcus faecium = experiment: Antibacterial activity against Enterococcus faecium assessed as bacterial growth inhibition measured after 24 hrs by two fold serial dilution technique; type: functional
Staphylococcus aureus [2] = experiment: Antibacterial activity against Staphylococcus aureus assessed as bacterial growth inhibition measured after 24 hrs by two fold serial dilution technique; type: functional
Staphylococcus aureus [3] = experiment: Antibacterial activity against Staphylococcus aureus ATCC 25923 assessed as bacterial growth inhibition measured after 24 hrs by two fold serial dilution technique; type: functional
Staphylococcus aureus [4] = experiment: Antibacterial activity against Staphylococcus aureus ATCC 29213 assessed as bacterial growth inhibition measured after 24 hrs by two fold serial dilution technique; type: functional
Klebsiella pneumoniae = experiment: Antibacterial activity against Klebsiella pneumoniae assessed as bacterial growth inhibition measured after 24 hrs by two fold serial dilution technique; type: functional
Escherichia coli [5] = experiment: Antibacterial activity against Escherichia coli assessed as bacterial growth inhibition measured after 24 hrs by two fold serial dilution technique; type: functional
Pseudomonas aeruginosa [6] = experiment: Antibacterial activity against Pseudomonas aeruginosa assessed as bacterial growth inhibition measured after 24 hrs by two fold serial dilution technique; type: functional
Acinetobacter baumannii = experiment: Antibacterial activity against Acinetobacter baumannii assessed as bacterial growth inhibition measured after 24 hrs by two fold serial dilution technique; type: functional
Pseudomonas aeruginosa [7] = experiment: Antibacterial activity against Pseudomonas aeruginosa ATCC 27853 assessed as bacterial growth inhibition measured after 24 hrs by two fold serial dilution technique; type: functional
Escherichia coli [8] = experiment: Antibacterial activity against Escherichia coli ATCC 25922 assessed as bacterial growth inhibition measured after 24 hrs by two fold serial dilution technique; type: functional
[9] = Hemolytic activity in human RBC assessed as hemolysis incubated for 1 hr; type: toxicity, cell-based, Erythrocyte; details: red blood cells

SMILES | MIC (Staphylococcus aureus [1]) [µg/mL] | MIC (Enterococcus faecium) [µg/mL] | MIC (Staphylococcus aureus [2]) [µg/mL] | MIC (Staphylococcus aureus [3]) [µg/mL] | MIC (Staphylococcus aureus [4]) [µg/mL] | MIC (Klebsiella pneumoniae) [µg/mL] | MIC (Escherichia coli [5]) [µg/mL] | MIC (Pseudomonas aeruginosa [6]) [µg/mL] | MIC (Acinetobacter baumannii) [µg/mL] | MIC (Pseudomonas aeruginosa [7]) [µg/mL] | MIC (Escherichia coli [8]) [µg/mL] | HC50 at 1 h [9] [µg/mL]
CO/N=C(\C(=O)N1CCN(c2ccc3c4c(cccc24)C(=O)N(c2nc4ccccc4s2)C3=O)CC1)c1csc(N)n1 | 16 (≈ 26.8 µM) | 64 (≈ 107 µM) | 128 (≈ 214 µM) | 128 (≈ 214 µM) | 128 (≈ 214 µM) | 16 (≈ 26.8 µM) | 64 (≈ 107 µM) | 64 (≈ 107 µM) | 128 (≈ 214 µM) | 32 (≈ 53.5 µM) | 16 (≈ 26.8 µM) | 334
CO/N=C(\C(=O)N1CCN(c2ccc3c4c(cccc24)C(=O)N(CC#N)C3=O)CC1)c1csc(N)n1 | 16 (≈ 31.8 µM) | 8 (≈ 15.9 µM) | 64 (≈ 127 µM) | 128 (≈ 254 µM) | 32 (≈ 63.5 µM) | 16 (≈ 31.8 µM) | 128 (≈ 254 µM) | 256 (≈ 508 µM) | 8 (≈ 15.9 µM) | 64 (≈ 127 µM) | 64 (≈ 127 µM) | 299
CCCCCCN1C(=O)c2cccc3c(N4CCN(C(=O)/C(=N\OC)c5csc(N)n5)CC4)ccc(c23)C1=O | 32 (≈ 58.3 µM) | 64 (≈ 117 µM) | 16 (≈ 29.2 µM) | 128 (≈ 233 µM) | 64 (≈ 117 µM) | 64 (≈ 117 µM) | 32 (≈ 58.3 µM) | 64 (≈ 117 µM) | 8 (≈ 14.6 µM) | 64 (≈ 117 µM) | 64 (≈ 117 µM) | 306
CO/N=C(\C(=O)N1CCN(c2ccc3c4c(cccc24)C(=O)N(C(CO)CO)C3=O)CC1)c1csc(N)n1 | 4 (≈ 7.43 µM) | 64 (≈ 119 µM) | 64 (≈ 119 µM) | 16 (≈ 29.7 µM) | 32 (≈ 59.4 µM) | 128 (≈ 238 µM) | 4 (≈ 7.43 µM) | 32 (≈ 59.4 µM) | 32 (≈ 59.4 µM) | 32 (≈ 59.4 µM) | 64 (≈ 119 µM) | 232
CCCCCCCCCCCCN1C(=O)c2cccc3c(N4CCN(C(=O)/C(=N\OC)c5csc(N)n5)CC4)ccc(c23)C1=O | 64 (≈ 101 µM) | 32 (≈ 50.6 µM) | 16 (≈ 25.3 µM) | 128 (≈ 202 µM) | 128 (≈ 202 µM) | 64 (≈ 101 µM) | 64 (≈ 101 µM) | 64 (≈ 101 µM) | 16 (≈ 25.3 µM) | 64 (≈ 101 µM) | 128 (≈ 202 µM) | 359
CO/N=C(\C(=O)N1CCN(c2ccc3c4c(cccc24)C(=O)N(NC(C)=O)C3=O)CC1)c1csc(N)n1 | 4 (≈ 7.67 µM) | 32 (≈ 61.4 µM) | 64 (≈ 123 µM) | 64 (≈ 123 µM) | 32 (≈ 61.4 µM) | 32 (≈ 61.4 µM) | 4 (≈ 7.67 µM) | 32 (≈ 61.4 µM) | 16 (≈ 30.7 µM) | 32 (≈ 61.4 µM) | 64 (≈ 123 µM) | 180
CO/N=C(\C(=O)N1CCN(c2ccc3c4c(cccc24)C(=O)N(O)C3=O)CC1)c1csc(N)n1 | 16 (≈ 33.3 µM) | 8 (≈ 16.6 µM) | 64 (≈ 133 µM) | 32 (≈ 66.6 µM) | 32 (≈ 66.6 µM) | 16 (≈ 33.3 µM) | 32 (≈ 66.6 µM) | 64 (≈ 133 µM) | 2 (≈ 4.16 µM) | 64 (≈ 133 µM) | 64 (≈ 133 µM) | 277
CO/N=C(\C(=O)N1CCN(c2ccc3c4c(cccc24)C(=O)N(n2cnnc2)C3=O)CC1)c1csc(N)n1 | 2 (≈ 3.76 µM) | 16 (≈ 30.1 µM) | 128 (≈ 241 µM) | 128 (≈ 241 µM) | 1 (≈ 1.88 µM) | 64 (≈ 120 µM) | 32 (≈ 60.2 µM) | 16 (≈ 30.1 µM) | 16 (≈ 30.1 µM) | 64 (≈ 120 µM) | 64 (≈ 120 µM) | 255
O=C(O)c1cn(C2CC2)c2cc(N3CCNCC3)c(F)cc2c1=O [CIPROFLOXACIN] | 4 (≈ 12.1 µM) | 2 (≈ 6.04 µM) | 2 (≈ 6.04 µM) | 0.5 (≈ 1.51 µM) | 8 (≈ 24.1 µM) | 2 (≈ 6.04 µM) | – | – | 2 (≈ 6.04 µM) | – | – | –
CN(C)[C@@H]1C(O)=C(C(N)=O)C(=O)[C@@]2(O)C(O)=C3C(=O)c4c(O)cccc4[C@@](C)(O)[C@H]3C[C@@H]12 [TETRACYCLINE] | 1 (≈ 2.25 µM) | 2 (≈ 4.5 µM) | 1 (≈ 2.25 µM) | 4 (≈ 9 µM) | 4 (≈ 9 µM) | 16 (≈ 36 µM) | 0.25 (≈ 0.563 µM) | 0.25 (≈ 0.563 µM) | 0.25 (≈ 0.563 µM) | 64 (≈ 144 µM) | 1 (≈ 2.25 µM) | –
